Reference: US9988429B2, “Glucagon analogues” (Zealand Pharma A/S, priority 2013, dated 2018)
pEC50: −log10 of the molar value. Starred links: 1 amine or outer side, 2 acyl side, 3 side chain; linkers in the order of their positions; H or OH if unused. Non-standard residues stand in square brackets, D forms with d. Residues, ends and D or L forms follow the SMILES beside them. Groups on a side chain read outwards from the residue. *: point of attachment. γGlu = O=C(O)[C@H](CCC(=O)[*:2])N[*:1]; Palmitoyl = CCCCCCCCCCCCCCCC(=O)*; Ac4c = NC1(C(=O)O)CCC1; Aib = CC(C)(N)C(=O)O

Columns and labels:
Type in all cases: cell-based
[1] = target: T1, human glucagon receptor (Glucagon-R) (Homo sapiens, UniProt P47871); assay: Glucagon receptor efficacy assay (cAMP AlphaScreen, CHO cells); conditions: cAMP formation, CHO cells expressing human Glucagon-R; read-out: EC50 hGCGR CHO-K1
T1 construct: expressed in transfected cells
Protocol: (§1) The mammalian expression vectors encoding the Glucagon-R or the GLP-1-R were transfected into Chinese hamster ovary (CHO) cells by the Attractene method. Stably expressing clones were obtained by Zeocin selection (250 μg/mL) upon limited dilution of cells resistant to the selection pressure. […] One Glucagon-R expressing clone and one GLP-1-R expressing clone were chosen for compound profiling.
(§2) CHO cells expressing the human Glucagon-R, or human GLP-1-R were seeded 24 hours prior to the assay at 30,000 cells per well in 96-well microtiter plates in culture in 100 μl growth medium. On the day of analysis, growth medium was removed and the cells were washed once with 200 μl of assay buffer (Krebs-Ringer-buffer—KRBH). The buffer was removed and the cells were incubated for 15 min at room temperature in 10 μl KRBH (KRBH+10 mM HEPES, 5 mM NaHCO3, 0.1% (V/V) BSA) with 0.1 mM IBMX in deionized water containing increasing concentrations of test peptides. The reaction was stopped by the addition of lysis buffer (0.1% w/v BSA, 5 mM HEPES, 0.3% v/v Tween-20). After cell lysis for 10 min at room temperature, lysates were transferred to 384-well plates and 10 μl of acceptor/donorbead mixture as contained in the AlphaScreen™ cAMP Functional Assay Kit was added. After one hour of incubation at room temperature in the dark, the cAMP content was determined applying the AlphaScreen™ cAMP Functional Assay Kit from Perkin-Elmer according to manufacturer instructions. […] The GLP-1/glucagon ratio is calculated as defined earlier.

[2] = target: T2, human glucagon-like peptide 1 receptor (GLP-1R) (Homo sapiens, UniProt P43220); assay: GLP-1 receptor efficacy assay (cAMP AlphaScreen, CHO cells); conditions: for Ratio GLP-1/Glucagon: EC50 [GLP-1R] / EC50 [Glucagon-R], human receptors in CHO-K1; for pEC50: cAMP formation, CHO cells expressing human GLP-1-R, read-out: EC50 hGLP-1R CHO-K1
T2 construct: expressed in transfected cells
Protocol: as §1, §2

[3] = target: T3, endogenous GLP-1 receptors (Mus musculus, UniProt O35659); assay: Agonistic activity on endogenous GLP-1 receptor, cAMP in murine insulinoma cell line; conditions: intracellular cAMP
T3 construct: Agonistic activity of the test compounds on endogenous GLP-1 receptors; endogenous in cells
T3 sequence (O35659 22-463): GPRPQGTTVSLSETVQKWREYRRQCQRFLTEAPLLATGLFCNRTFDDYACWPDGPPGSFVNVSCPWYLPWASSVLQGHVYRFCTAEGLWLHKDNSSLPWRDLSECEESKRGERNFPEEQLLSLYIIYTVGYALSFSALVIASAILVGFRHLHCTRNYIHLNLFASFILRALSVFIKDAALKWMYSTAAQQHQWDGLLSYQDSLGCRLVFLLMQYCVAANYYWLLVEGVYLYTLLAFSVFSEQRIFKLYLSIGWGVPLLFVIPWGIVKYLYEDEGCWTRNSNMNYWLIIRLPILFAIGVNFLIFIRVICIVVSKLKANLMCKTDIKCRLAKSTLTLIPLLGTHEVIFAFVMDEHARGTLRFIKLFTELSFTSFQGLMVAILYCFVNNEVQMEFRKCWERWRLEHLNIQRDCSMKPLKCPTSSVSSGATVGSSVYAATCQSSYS
Protocol: Agonistic activity of the test compounds on endogenous GLP-1 receptors was determined using a murine insulinoma cell line. Intracellular cAMP was used as an indicator of receptor activation.
Cells were cultured for 24 h at a density of 10,000 cells/well in a 384-well plate. Medium was removed and 10 μL KRBH buffer (NaCl 130 mM, KCl 3.6 mM, NaH2PO4 0.5 mM, MgSO4 0.5 mM, CaCl2 1.5 mM) containing test compound or GLP-1 (at increasing concentrations from 0.1 pM to 100 nM) or solvent control (0.1% (v/v) DMSO) was added to the wells for 15 minutes at a temperature of 26° C.
The cellular cAMP content is measured using the AlphaScreen cAMP Functional Assay Kit (Perkin Elmer). Measurement was performed using the Envision (PerkinElmer) according to manufacturer's recommendations.
All measurements were performed in quadruplicate.
The resulting cAMP curves were plotted as absolute cAMP concentrations (nM) over log (test compound concentration) and analyzed using the curve fitting program XLfit.

T2 sequence (P43220 24-463): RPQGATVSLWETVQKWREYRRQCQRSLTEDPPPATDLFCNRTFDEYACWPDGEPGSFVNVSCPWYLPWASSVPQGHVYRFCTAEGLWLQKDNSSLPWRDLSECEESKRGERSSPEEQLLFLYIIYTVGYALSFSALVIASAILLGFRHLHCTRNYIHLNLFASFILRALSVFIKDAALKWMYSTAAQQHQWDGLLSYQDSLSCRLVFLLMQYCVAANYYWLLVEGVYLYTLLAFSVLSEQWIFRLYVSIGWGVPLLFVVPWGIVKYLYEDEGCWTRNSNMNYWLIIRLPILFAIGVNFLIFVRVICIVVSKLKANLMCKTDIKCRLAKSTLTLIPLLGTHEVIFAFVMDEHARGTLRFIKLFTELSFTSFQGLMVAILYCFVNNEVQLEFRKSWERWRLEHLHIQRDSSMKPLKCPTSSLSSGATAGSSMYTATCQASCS
T1 sequence (P47871 26-477): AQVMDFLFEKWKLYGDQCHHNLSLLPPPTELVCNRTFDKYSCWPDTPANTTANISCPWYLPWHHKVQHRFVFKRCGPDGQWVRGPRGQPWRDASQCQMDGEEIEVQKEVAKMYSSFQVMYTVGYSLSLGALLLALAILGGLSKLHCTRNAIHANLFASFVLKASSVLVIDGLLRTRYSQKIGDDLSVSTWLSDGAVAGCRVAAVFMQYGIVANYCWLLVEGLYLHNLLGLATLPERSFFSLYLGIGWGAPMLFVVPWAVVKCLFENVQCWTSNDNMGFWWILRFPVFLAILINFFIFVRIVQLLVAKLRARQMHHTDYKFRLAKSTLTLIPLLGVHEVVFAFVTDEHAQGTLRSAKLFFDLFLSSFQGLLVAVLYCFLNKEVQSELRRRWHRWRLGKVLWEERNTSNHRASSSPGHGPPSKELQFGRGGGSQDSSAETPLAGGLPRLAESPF

| SMILES | pEC50 [1] | Ratio GLP-1/Glucagon [2] | pEC50 [2] | pEC50 [3] |
| --- | --- | --- | --- | --- |
| CCCCCCCCCCCCCCCC(=O)N[C@@H](CCC(=O)NCCCC[C@H](NC(=O)[C@H](CO)NC(=O)[C@H](CC(=O)O)NC(=O)[C@H](CC(C)C)NC(=O)[C@H](Cc1ccc(O)cc1)NC(=O)[C@H](CCCCN)NC(=O)[C@H](CO)NC(=O)[C@H](Cc1ccc(O)cc1)NC(=O)[C@H](CC(=O)O)NC(=O)[C@H](CO)NC(=O)[C@@H](NC(=O)[C@H](Cc1ccccc1)NC(=O)[C@@H](NC(=O)CNC(=O)[C@H](Cc1c[nH]cn1)NC(=O)[C@H](CO)NC(=O)[C@@H](N)Cc1c[nH]cn1)[C@@H](C)O)[C@@H](C)O)C(=O)N[C@@H](C)C(=O)N[C@@H](C)C(=O)N[C@@H](Cc1c[nH]cn1)C(=O)N[C@@H](CC(=O)O)C(=O)N[C@@H](Cc1ccccc1)C(=O)N[C@H](C(=O)N[C@@H](CCC(=O)O)C(=O)N[C@@H](Cc1c[nH]c2ccccc12)C(=O)N[C@@H](CC(C)C)C(=O)N[C@@H](CC(C)C)C(=O)N[C@@H](CO)C(=O)N[C@@H](C)C(N)=O)C(C)C)C(=O)O [Compound 5] (H-HSHGTFTSDYSKYLDSK([γGlu-Palmitoyl])AAHDFVEWLLSA-NH2) | 9.92 | 2.25 | 9.57 | – |
| CCCCCCCCCCCCCCCC(=O)N[C@@H](CCC(=O)NCCCC[C@H](NC(=O)[C@H](CO)NC(=O)[C@H](CC(=O)O)NC(=O)[C@H](CC(C)C)NC(=O)[C@H](Cc1ccc(O)cc1)NC(=O)[C@H](CCCCN)NC(=O)[C@H](CO)NC(=O)[C@H](Cc1ccc(O)cc1)NC(=O)[C@H](CC(=O)O)NC(=O)[C@H](CO)NC(=O)[C@@H](NC(=O)[C@H](Cc1ccccc1)NC(=O)[C@@H](NC(=O)CNC(=O)[C@H](Cc1c[nH]cn1)NC(=O)C1(NC(=O)[C@@H](N)Cc2c[nH]cn2)CCC1)[C@@H](C)O)[C@@H](C)O)C(=O)N[C@@H](C)C(=O)N[C@@H](C)C(=O)N[C@@H](Cc1c[nH]cn1)C(=O)N[C@@H](CC(=O)O)C(=O)N[C@@H](Cc1ccccc1)C(=O)N[C@H](C(=O)N[C@@H](CCC(=O)O)C(=O)N[C@@H](Cc1c[nH]c2ccccc12)C(=O)N[C@@H](CC(C)C)C(=O)N[C@@H](CC(C)C)C(=O)N[C@@H](CO)C(=O)N[C@@H](C)C(N)=O)C(C)C)C(=O)O [Compound 9] (H-H[Ac4c]HGTFTSDYSKYLDSK([γGlu-Palmitoyl])AAHDFVEWLLSA-NH2) | 9.70 | 1.65 | – | 9.68 |
| CCCCCCCCCCCCCCCC(=O)N[C@@H](CCC(=O)NCCCC[C@H](NC(=O)[C@H](CCC(=O)O)NC(=O)[C@H](CC(=O)O)NC(=O)[C@H](CC(C)C)NC(=O)[C@H](Cc1ccc(O)cc1)NC(=O)[C@H](CCCCN)NC(=O)[C@H](CO)NC(=O)[C@H](Cc1ccc(O)cc1)NC(=O)[C@H](CC(=O)O)NC(=O)[C@H](CO)NC(=O)[C@@H](NC(=O)[C@H](Cc1ccccc1)NC(=O)[C@@H](NC(=O)CNC(=O)[C@H](CCC(N)=O)NC(=O)C(C)(C)NC(=O)[C@@H](N)Cc1c[nH]cn1)[C@@H](C)O)[C@@H](C)O)C(=O)N[C@@H](C)C(=O)N[C@@H](C)C(=O)N[C@@H](CCCCN)C(=O)N[C@@H](CC(=O)O)C(=O)N[C@@H](Cc1ccccc1)C(=O)N[C@H](C(=O)N[C@@H](CCC(=O)O)C(=O)N[C@@H](Cc1c[nH]c2ccccc12)C(=O)N[C@@H](CC(C)C)C(=O)N[C@@H](CCC(=O)O)C(=O)N[C@@H](CCC(=O)O)C(=O)N[C@@H](CCC(=O)O)C(N)=O)[C@@H](C)CC)C(=O)O [Compound 17] (H-H[Aib]QGTFTSDYSKYLDEK([γGlu-Palmitoyl])AAKDFIEWLEEE-NH2) | – | 3.38 | 9.57 | 9.68 |

The remaining lines, values ahead:

| pEC50 [1] | Ratio GLP-1/Glucagon [2] | pEC50 [2] | pEC50 [3] | SMILES |
| --- | --- | --- | --- | --- |
| 9.92 | 2.59 | – | – | CCCCCCCCCCCCCCCC(=O)N[C@@H](CCC(=O)NCCCC[C@H](NC(=O)[C@H](CO)NC(=O)[C@H](CC(=O)O)NC(=O)[C@H](CC(C)C)NC(=O)[C@H](Cc1ccc(O)cc1)NC(=O)[C@H](CCCCN)NC(=O)[C@H](CO)NC(=O)[C@H](Cc1ccc(O)cc1)NC(=O)[C@H](CC(=O)O)NC(=O)[C@H](CO)NC(=O)[C@@H](NC(=O)[C@H](Cc1ccccc1)NC(=O)[C@@H](NC(=O)CNC(=O)[C@H](CCC(N)=O)NC(=O)C1(NC(=O)[C@@H](N)Cc2c[nH]cn2)CCC1)[C@@H](C)O)[C@@H](C)O)C(=O)N[C@@H](C)C(=O)N[C@@H](C)C(=O)N[C@@H](Cc1c[nH]cn1)C(=O)N[C@@H](CC(=O)O)C(=O)N[C@@H](Cc1ccccc1)C(=O)N[C@H](C(=O)N[C@@H](CCC(=O)O)C(=O)N[C@@H](Cc1c[nH]c2ccccc12)C(=O)N[C@@H](CC(C)C)C(=O)N[C@@H](CC(C)C)C(=O)N[C@@H](CO)C(=O)N[C@@H](C)C(N)=O)C(C)C)C(=O)O [Compound 4] |
| 10.00 | 2.7 | 9.57 | – | CCCCCCCCCCCCCCCC(=O)N[C@@H](CCC(=O)NCCCC[C@H](NC(=O)[C@H](CCC(=O)O)NC(=O)[C@H](CC(=O)O)NC(=O)[C@H](CC(C)C)NC(=O)[C@H](Cc1ccc(O)cc1)NC(=O)[C@H](CCCCN)NC(=O)[C@H](CO)NC(=O)[C@H](Cc1ccc(O)cc1)NC(=O)[C@H](CC(=O)O)NC(=O)[C@H](CO)NC(=O)[C@@H](NC(=O)[C@H](Cc1ccccc1)NC(=O)[C@@H](NC(=O)CNC(=O)[C@H](CCC(N)=O)NC(=O)[C@H](CC)NC(=O)[C@@H](N)Cc1c[nH]cn1)[C@@H](C)O)[C@@H](C)O)C(=O)N[C@@H](C)C(=O)N[C@@H](C)C(=O)N[C@@H](CCCCN)C(=O)N[C@@H](CC(=O)O)C(=O)N[C@@H](Cc1ccccc1)C(=O)N[C@H](C(=O)N[C@@H](CCC(=O)O)C(=O)N[C@@H](Cc1c[nH]c2ccccc12)C(=O)N[C@@H](CC(C)C)C(=O)N[C@@H](CCC(=O)O)C(=O)N[C@@H](CO)C(=O)N[C@@H](C)C(N)=O)[C@@H](C)CC)C(=O)O [Compound 10] |
